Legend:
[1] = system: SF-539; assay: Induction of cell cycle arrest in human SF539 cells expressing p53 gene assessed as accumulation at subG1 phase at 10 uM after 24 hrs by FACS analysis; type: functional
[2] = Inhibition of Ck2
[3] = system: OVCAR-8; assay: Induction of cell cycle arrest in p53 deficient human OVCAR8 cells assessed as residual DNA synthesis at 5 uM after 24hrs by FACS analysis; type: functional
[4] = system: COLO 205; assay: Induction of cell cycle arrest in p53 deficient human COLO205 cells assessed as residual DNA synthesis at 5 uM after 24 hrs by FACS analysis; type: functional
[5] = system: SF-268; assay: Induction of cell cycle arrest in p53 deficient human SF268 cells assessed as residual DNA synthesis at 5 uM after 24 hrs FACS analysis; type: functional
[6] = system: SW480; assay: Induction of cell cycle arrest in p53 deficient human SW480 cells assessed as residual DNA synthesis at 5 uM after 24 hrs by FACS analysis; type: functional
[7] = molecular target: Serine/threonine-protein kinase NIM1 (Homo sapiens, UniProt Q8IY84); assay: Inhibition of NIM1
Chain of Serine/threonine-protein kinase NIM1 (Q8IY84 whole entry): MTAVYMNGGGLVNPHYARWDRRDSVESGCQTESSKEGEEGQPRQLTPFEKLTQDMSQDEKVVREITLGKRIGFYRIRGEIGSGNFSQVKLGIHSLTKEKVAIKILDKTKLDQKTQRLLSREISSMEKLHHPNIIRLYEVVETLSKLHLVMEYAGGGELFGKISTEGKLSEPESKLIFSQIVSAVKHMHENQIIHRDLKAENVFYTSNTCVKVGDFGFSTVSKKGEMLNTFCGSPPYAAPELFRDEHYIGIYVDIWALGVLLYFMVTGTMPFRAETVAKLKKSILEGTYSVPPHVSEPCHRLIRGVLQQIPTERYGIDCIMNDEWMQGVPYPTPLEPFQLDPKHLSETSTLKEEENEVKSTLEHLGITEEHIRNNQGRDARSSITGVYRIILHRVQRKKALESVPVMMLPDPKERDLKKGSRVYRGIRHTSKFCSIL

[8] = molecular target: Serine/threonine-protein kinase TAO3 (Homo sapiens, UniProt Q9H2K8); assay: Inhibition of TAO3
Chain of Serine/threonine-protein kinase TAO3 (Q9H2K8 whole entry): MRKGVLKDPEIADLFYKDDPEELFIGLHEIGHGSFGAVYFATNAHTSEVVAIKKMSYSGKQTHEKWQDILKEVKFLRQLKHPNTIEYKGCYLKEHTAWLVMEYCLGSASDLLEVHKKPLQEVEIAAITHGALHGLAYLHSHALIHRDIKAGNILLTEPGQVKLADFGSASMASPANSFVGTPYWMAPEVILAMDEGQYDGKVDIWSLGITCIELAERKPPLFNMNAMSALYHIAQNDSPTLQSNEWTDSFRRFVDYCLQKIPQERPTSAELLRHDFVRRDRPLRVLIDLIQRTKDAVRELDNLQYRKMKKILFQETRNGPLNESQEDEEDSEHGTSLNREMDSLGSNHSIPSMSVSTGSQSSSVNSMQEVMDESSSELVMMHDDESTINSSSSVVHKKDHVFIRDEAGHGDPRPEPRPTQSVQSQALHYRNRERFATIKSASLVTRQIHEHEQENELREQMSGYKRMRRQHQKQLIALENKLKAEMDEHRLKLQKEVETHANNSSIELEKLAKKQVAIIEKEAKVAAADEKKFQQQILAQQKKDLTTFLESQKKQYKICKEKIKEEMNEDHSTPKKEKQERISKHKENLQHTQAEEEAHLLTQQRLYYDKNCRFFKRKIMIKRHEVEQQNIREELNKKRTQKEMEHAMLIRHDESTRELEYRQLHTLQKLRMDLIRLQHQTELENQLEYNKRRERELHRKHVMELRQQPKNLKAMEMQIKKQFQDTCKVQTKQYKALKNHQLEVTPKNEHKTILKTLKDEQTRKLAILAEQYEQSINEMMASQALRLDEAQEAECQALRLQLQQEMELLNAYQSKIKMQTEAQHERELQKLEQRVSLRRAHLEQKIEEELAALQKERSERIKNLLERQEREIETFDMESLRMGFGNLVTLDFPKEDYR

[9] = system: SF-268; assay: Induction of cell cycle arrest in p53 deficient human SF268 cells assessed as residual DNA synthesis at 10 uM after 24 hrs by FACS analysis; type: functional
[10] = system: HeLa; assay: Inhibition of DNA replication in human HeLa cells assessed as interorigin distance between homogenous DNA fibers at 20 uM after 6 hrs by immunofluorescence assay; type: functional
[11] = system: Jurkat; assay: Induction of cell cycle arrest in p53 deficient human Jurkat cells assessed as residual DNA synthesis at 10 uM after 24 hrs by FACS analysis; type: functional
[12] = system: HeLa; assay: Inhibition of DNA replication in human HeLa cells assessed as interorigin distance between homogenous DNA fibers at 5 uM after 4 hrs by immunofluorescence assay; type: functional
[13] = system: HeLa; assay: Inhibition of DNA replication in human HeLa cells assessed as increase in replication fork speed per min at 2 uM after 2 hrs by immunofluorescence assay; type: functional
[14] = system: A2780; assay: Induction of cell cycle arrest in human A2780 cells expressing p53 gene assessed as accumulation at subG1 phase at 10 uM after 24 hrs by FACS analysis; type: functional
[15] = Induction of cell cycle arrest in p53 deficient human HCT116-E6 cells assessed as residual DNA synthesis at 5 uM after 24 hrs by FACS analysis; type: functional
[16] = system: HeLa; assay: Antiproliferative activity against p53 deficient human HeLa cells after 72 hrs; type: functional, cell-based
[17] = system: SW480; assay: Induction of cell cycle arrest in p53 deficient human SW480 cells assessed as residual DNA synthesis at 10 uM after 24 hrs by FACS analysis; type: functional
[18] = system: NHDF; assay: Induction of cell cycle arrest in NHDF expressing p53 gene assessed as residual DNA synthesis at 10 uM after 24 hrs by FACS analysis; type: cell-based; details: human
[19] = system: HeLa; assay: Inhibition of DNA replication in human HeLa cells assessed as increase in replication fork speed per min at 20 uM after 4 hrs by immunofluorescence assay; type: functional
[20] = system: NHDF; assay: Induction of cell cycle arrest in NHDF expressing p53 gene assessed as residual DNA synthesis at 5 uM after 24 hrs by FACS analysis; type: cell-based; details: human
[21] = system: SF-539; assay: Antiproliferative activity against human SF539 cells expressing p53 gene after 72 hrs by proliferative assay; type: functional, cell-based; details: SF-539, 72 h
[22] = system: HeLa; assay: Inhibition of DNA replication in human HeLa cells assessed as increase in replication fork speed per min at 20 uM after 6 hrs by immunofluorescence assay; type: functional
[23] = system: MCF7; assay: Induction of cell cycle arrest in human MCF7 cells expressing p53 gene assessed as accumulation at subG1 phase at 10 uM after 24hrs by FACS analysis; type: functional
[24] = system: NHDF; assay: Induction of cell cycle arrest in thymidine deficient NHDF assessed as DNA synthesis in S-phase at 5 uM after 16hrs FACS analysis in presence of serum; type: cell-based; details: human
[25] = system: OVCAR-8; assay: Antiproliferative activity against p53 deficient human OVCAR8 cells after 72 hrs by proliferative assay; type: functional, cell-based; details: OVCAR-8, 72 h
[26] = system: HeLa; assay: Induction of cell cycle arrest in p53 deficient human HeLa cells assessed as residual DNA synthesis at 10 uM after 24 hrs by FACS analysis; type: functional
[27] = system: COLO 205; assay: Induction of cell cycle arrest in p53 deficient human COLO205 cells assessed as residual DNA synthesis at 10 uM after 24 hrs by FACS analysis; type: functional
[28] = Induction of cell cycle arrest in p53 deficient human HCT116-E6 cells assessed as accumulation at subG1 phase at 5 uM after 24hrs by FACS analysis; type: functional
[29] = system: U2OS; assay: Induction of cell cycle arrest in human U2OS cells expressing p53 gene assessed as residual DNA synthesis at 5 uM after 24 hrs by FACS analysis; type: functional
[30] = system: NHDF; assay: Induction of cell cycle arrest in NHDF expressing p53 gene assessed as accumulation at subG1 phase at 0.1 uM after 24hrs by FACS analysis; type: cell-based; details: human
[31] = molecular target: Protein kinase C beta type (Homo sapiens, UniProt P05771); assay: Inhibition of PKCbeta
Chain of Protein kinase C beta type (P05771 whole entry): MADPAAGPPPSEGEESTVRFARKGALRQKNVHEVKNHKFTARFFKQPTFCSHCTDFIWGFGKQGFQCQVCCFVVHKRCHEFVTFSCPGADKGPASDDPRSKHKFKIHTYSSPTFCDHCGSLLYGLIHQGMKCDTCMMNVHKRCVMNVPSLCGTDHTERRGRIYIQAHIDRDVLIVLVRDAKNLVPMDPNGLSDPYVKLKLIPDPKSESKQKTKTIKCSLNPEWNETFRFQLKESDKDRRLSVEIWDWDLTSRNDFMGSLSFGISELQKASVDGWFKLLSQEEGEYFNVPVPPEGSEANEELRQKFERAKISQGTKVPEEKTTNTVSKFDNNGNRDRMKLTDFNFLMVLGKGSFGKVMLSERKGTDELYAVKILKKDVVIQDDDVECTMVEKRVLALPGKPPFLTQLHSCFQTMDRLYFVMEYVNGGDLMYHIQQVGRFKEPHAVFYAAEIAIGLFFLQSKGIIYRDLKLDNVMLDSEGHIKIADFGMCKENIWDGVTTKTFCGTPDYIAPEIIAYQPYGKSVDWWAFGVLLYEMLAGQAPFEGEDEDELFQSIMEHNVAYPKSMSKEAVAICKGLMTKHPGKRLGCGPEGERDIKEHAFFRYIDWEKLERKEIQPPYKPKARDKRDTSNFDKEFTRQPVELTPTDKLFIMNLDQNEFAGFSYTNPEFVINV

[32] = system: NHDF; assay: Induction of cell cycle arrest in NHDF expressing p53 gene assessed as accumulation at subG1 phase at 10 uM after 24 hrs by FACS analysis; type: cell-based; details: human
[33] = system: HeLa; assay: Inhibition of DNA synthesis in human HeLa cells assessed as Brd-U uptake at 5 uM after 6 hrs by FACS analysis; type: functional; set-up: scale not given: the % may be the effect or the level left
[34] = system: HeLa; assay: Inhibition of DNA synthesis in human HeLa cells assessed as Brd-U uptake at 5 uM after 9 hrs by FACS analysis; type: functional; set-up: scale not given: the % may be the effect or the level left
[35] = system: U2OS; assay: Induction of cell cycle arrest in human U2OS cells expressing p53 gene assessed as accumulation at subG1 phase at 10 uM after 24 hrs by FACS analysis; type: functional
[36] = system: COLO 205; assay: Induction of cell cycle arrest in p53 deficient human COLO205 cells assessed as accumulation at subG1 phase at 10 uM after 24hrs by FACS analysis; type: functional
[37] = system: Mus musculus; assay: AUC in SCID mouse carrying human HL60 cells at 30 mg/kg, iv after 10 hrs; type: ADME, organism-based, HL-60; set-up: time < 10 hr, dose 30 mg/kg, route intravenous; details: in vivo
[38] = Clearance in SCID mouse carrying human HL60 cells at 20 mg/kg or 30 mg/kg, iv after 10 hrs; type: ADME, organism-based, HL-60; details: in vivo
[39] = system: K562; assay: Induction of cell cycle arrest in p53 deficient human K562 cells assessed as residual DNA synthesis at 5 uM after 24hrs by FACS analysis; type: functional
[40] = Induction of cell cycle arrest in p53 deficient human HCT116-E6 cells assessed as residual DNA synthesis at 10 uM after 24 hrs by FACS analysis; type: functional
[41] = system: K562; assay: Induction of cell cycle arrest in p53 deficient human K562 cells assessed as accumulation at subG1 phase at 5 uM after 24hrs by FACS analysis; type: functional
[42] = system: HeLa; assay: Induction of cell cycle arrest in p53 deficient human HeLa cells assessed as residual DNA synthesis at 5 uM after 24hrs by FACS analysis; type: functional

O=C1NCCc2[nH]c(-c3ccncc3)cc21
Activity [1]: 3% | IC50 [2]: > 10 µM | Activity [3]: <3% | Activity [4]: <3% | Activity [5]: <3% | Activity [6]: <3% | IC50 [7]: > 10 µM | IC50 [8]: > 10 µM | Activity [9]: <3% | Activity [10]: 287 kilobase | Activity [11]: <3% | Activity [12]: 288 kilobase | Activity [13]: 1.8 kilobase | Activity [14]: >20% | Activity [15]: 3% | IC50 [16]: 1830 nM | Activity [17]: <3% | Activity [18]: < 3% | Activity [19]: 2.32 kilobase | Activity [20]: < 3% | IC50 [21]: 2340 nM | Activity [22]: 2.28 kilobase | Activity [23]: <3% | Activity [24]: Active | IC50 [25]: 1560 nM | Activity [26]: <3% | Activity [27]: 3% | Activity [28]: 3% | Activity [29]: <3% | Activity [30]: Active | IC50 [31]: > 10 µM | Activity [32]: < 3% | Activity [33]: 26% | Activity [34]: 9% | Activity [35]: 3% | Activity [36]: >20% | AUC [37]: 71 µM·h | clearance [38]: 30 mL/min/kg | Activity [39]: 10% | Activity [40]: <3% | Activity [41]: <3% | Activity [42]: <3%
